Test results: US20260166016A1, “GPR139 RECEPTOR AGONIST, PREPARATION METHOD THEREFOR, AND APPLICATION THEREOF” (NEUBO APPTECH CO., LTD., priority 2022, published 2026)

Biological target: T1, GPR139 (Homo sapiens, UniProt Q6DWJ6)
T1 construct: expressed in transfected cells; host or cells: HEK293
T1 sequence (Q6DWJ6 1-353): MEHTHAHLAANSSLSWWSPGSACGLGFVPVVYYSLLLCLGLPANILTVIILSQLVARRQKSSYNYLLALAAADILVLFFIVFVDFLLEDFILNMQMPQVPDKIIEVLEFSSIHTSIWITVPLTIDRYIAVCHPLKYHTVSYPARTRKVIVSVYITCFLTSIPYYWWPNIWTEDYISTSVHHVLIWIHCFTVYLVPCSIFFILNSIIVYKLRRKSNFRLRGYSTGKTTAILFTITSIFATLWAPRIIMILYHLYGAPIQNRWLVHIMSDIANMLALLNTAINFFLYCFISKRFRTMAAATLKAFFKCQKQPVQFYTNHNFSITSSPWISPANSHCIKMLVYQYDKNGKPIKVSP
Assay: GPR139 FLIPR cell calcium signal detection in GPR139-transfected HEK293 cells
Format: cell-based
Details: HEK293 cells transfected with GPR139, read-out: EC50 values of compounds for GPR139
Procedure: HEK293 cells were grown in a 10 cm culture dish containing DMEM complete medium (containing glutamine, sodium pyruvate, penicillin/streptomycin, 10% fetal bovine serum) and incubated at 37° C. in a 5% CO2 incubator until 90% confluency. Then subculture twice a week at a ratio of 1:5. During cell passaging, the culture medium was first completely removed, washed once with 4 mL of DPBS, and then 3 mL of trypsin digestion solution was added and mixed well. When cell dissociation was observed, the trypsin solution was aspirated and 5 mL of complete DMEM medium was added. The cells were dispersed by pipetting, and 1 mL of cell suspension was added to each of five new 10 cm culture dishes. Then, 7 mL of complete DMEM medium was supplemented to each dish. After mixing, the cells were cultured at 37° C. in a 5% CO2 incubator.
On the transfection day, cells were digested and seeded into one 10 cm culture dish at appropriate density. 6 mL of DMEM/F12 medium (containing glutamine, sodium pyruvate, HEPES, and fetal bovine serum) was added, and the cells were cultured for 5 hours at 37° C. in 5% CO2. A 50 mL sterile centrifuge tube (Tube A) was taken, and 1 mL of serum-free DMEM/F12 medium (containing glutamine, sodium pyruvate, and HEPES) was added, followed by 10 μg of GPR139 DNA. The mixture was mixed well. Another 50 mL sterile centrifuge tube (Tube B) was taken, and 1 mL of serum-free DMEM medium (containing glutamine, sodium pyruvate, and HEPES) was added, followed by 60 μL of Fugene HD transfection reagent. The mixture was mixed well. 1 mL of Fugene HD transfection reagent from Tube B was transferred to Tube A, mixed well, and incubated at room temperature for 20 minutes. 2 mL of DMEM/F12 medium (containing glutamine, sodium pyruvate, HEPES, and fetal bovine serum) was added to Tube A. After mixing, 4 mL of mixture from Tube A was transferred to the prepared 10 cm dish (total volume 10 mL). The cells were cultured for 20-24 hours at 37° C. in 5% CO2.
The next day, the transfected cells were digested with trypsin digestion solution, and appropriate DMEM/F12 medium (containing glutamine, sodium pyruvate, HEPES, penicillin/streptomycin, fetal bovine serum) was added. The cells were seeded into Matrigel coated 384-well plates with a cell density of 6.67×10^6 cells/mL, 30 μL/well. The 384-well plates were cultured at 37° C. in 5% CO2.
On the third day, 10 μL/well of FLIPR dye (diluted in HEPES solution containing Pluronic and Probenecid) was added to the 384-well cell plate. And the plate was incubated for 40 minutes at 37° C. in 5% CO2. Diluted compounds were added to the cell plate and calcium signals were measured using a FLIPR plate reader.
Data were analyzed using XL-fit software to obtain EC50 values for each compound.

SMILES	EC50 [nM]
C[C@H](NC(=O)CNC(=O)c1cc(Cl)cc(C(F)(F)F)n1)c1c(F)cc(F)cc1F [NRB227]	100 to 1000
C[C@H](NC(=O)CNC(=O)c1cc(F)ccn1)c1ccccc1F [NRB156]	100 to 1000
C[C@H](NC(=O)CNC(=O)c1cccc(Cl)c1)c1cccc(F)c1F [NRB180]	0.1 to 100
C[C@H](NC(=O)CNC(=O)c1cccc(Cl)c1)c1cc(F)ccc1F [NRB178]	0.1 to 100
C[C@H](NC(=O)CNC(=O)c1cccc(F)c1)c1c(F)cccc1F [NRB154]	100 to 1000
C[C@H](NC(=O)CNC(=O)c1cccc(F)c1)c1ccccc1F [NRB153]	0.1 to 100

The remaining lines, values ahead:

EC50 [nM]	SMILES
0.1 to 100	C[C@H](NC(=O)CNC(=O)c1cc(F)cc(F)c1)c1c(F)cccc1F [NRB202]
0.1 to 100	COc1cc(F)nc(C(=O)NCC(=O)N[C@@H](C)c2c(F)cccc2F)c1 [NRB215]
0.1 to 100	C[C@H](NC(=O)CNC(=O)c1cc(Cl)cc(F)n1)c1c(F)cc(F)cc1F [NRB225]
100 to 1000	C[C@H](NC(=O)CNC(=O)c1cc(Cl)cc(C(F)(F)F)n1)c1c(F)cccc1F [NRB222]
100 to 1000	C[C@H](NC(=O)CNC(=O)c1cc(F)cc(C(F)(F)F)n1)c1c(F)cccc1F [NRB214]
0.1 to 100	C[C@H](NC(=O)CNC(=O)c1cc(Cl)cc(Cl)c1)c1c(F)cccc1F [NRB216]
100 to 1000	COc1cc(Cl)cc(C(=O)NCC(=O)N[C@@H](C)c2c(F)cccc2F)n1 [NRB221]
0.1 to 100	COc1cc(F)nc(C(=O)NCC(=O)N[C@@H](C)c2ccccc2F)c1 [NRB211]
